The results in this text go back to patent US20260226048A1, “MULTI-CYCLIC IRAK AND FLT3 INHIBITING COMPOUNDS AND USES THEREOF” (CHILDREN'S HOSPITAL MEDICAL CENTER, priority 2023, published 2026).

One assay has as its target T1, FLT3 ITD, F691L (Homo sapiens, UniProt P36888, F691L, form not given).
T1 construct: fused on or other part: DNA tag for qPCR detection (kinase-tagged T7 phage, or made in HEK-293 cells and then tagged with DNA)
T1 sequence (P36888 1-993 F691L): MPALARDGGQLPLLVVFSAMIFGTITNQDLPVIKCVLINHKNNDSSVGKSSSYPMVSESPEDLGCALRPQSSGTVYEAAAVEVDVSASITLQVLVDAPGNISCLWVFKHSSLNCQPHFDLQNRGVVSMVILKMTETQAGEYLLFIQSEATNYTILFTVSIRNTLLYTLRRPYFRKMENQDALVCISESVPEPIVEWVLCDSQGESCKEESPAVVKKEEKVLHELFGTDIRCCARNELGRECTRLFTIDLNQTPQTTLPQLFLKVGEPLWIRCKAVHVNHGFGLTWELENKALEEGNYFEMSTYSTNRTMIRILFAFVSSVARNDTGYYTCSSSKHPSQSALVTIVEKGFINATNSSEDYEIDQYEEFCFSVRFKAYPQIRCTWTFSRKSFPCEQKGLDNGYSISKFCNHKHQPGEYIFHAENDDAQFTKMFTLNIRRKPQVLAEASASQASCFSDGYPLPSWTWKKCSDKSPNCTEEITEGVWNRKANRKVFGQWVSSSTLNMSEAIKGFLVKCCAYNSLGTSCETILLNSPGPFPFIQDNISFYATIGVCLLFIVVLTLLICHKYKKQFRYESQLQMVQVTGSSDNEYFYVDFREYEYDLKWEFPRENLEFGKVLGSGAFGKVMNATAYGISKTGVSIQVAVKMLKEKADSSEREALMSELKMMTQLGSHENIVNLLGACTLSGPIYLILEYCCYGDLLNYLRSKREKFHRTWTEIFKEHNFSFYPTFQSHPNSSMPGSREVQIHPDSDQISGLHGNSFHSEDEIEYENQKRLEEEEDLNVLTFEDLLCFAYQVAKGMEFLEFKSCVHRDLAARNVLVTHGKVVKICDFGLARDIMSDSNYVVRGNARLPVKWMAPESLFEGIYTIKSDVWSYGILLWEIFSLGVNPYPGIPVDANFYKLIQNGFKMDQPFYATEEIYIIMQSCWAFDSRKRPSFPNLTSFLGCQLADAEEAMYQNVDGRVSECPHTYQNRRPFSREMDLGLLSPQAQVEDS
Nature of the assay: DiscoverX KINOMEscan competition binding assay, FLT3 ITD, F691L. The note with it: 11-point 3-fold dilution. The source says:
(§1) […]. […] As a result, the data report thermodynamic interaction affinities (Kd values), rather than IC50 values that are dependent on ATP concentrations. The assay uses a DNA-tagged version of the protein kinase, and an immobilized ligand bound to a solid support. Compounds that directly or indirectly prevent kinase binding to the immobilized ligand reduce the amount of kinase captured on the solid support, which is detected using an ultra-sensitive qPCR method. Affinity constants reported from the assay have been reported to be independent of the immobilized ligand used that is coupled to the solid support (See supplemental information in Fabian, M. A. et. al., (2005) Nat. Biotechnol. 23, 329-336; Wodicka, L. M. et. al., (2010) Chem. Biol. 17, 1241-1249.)
(§2) Kinase-tagged T7 phage strains were prepared in an E. coli host derived from the BL21 strain. E. coli were grown to log-phase and infected with T7 phage and incubated with shaking at 32° C. until lysis. The lysates were centrifuged and filtered to remove cell debris. The remaining kinases were produced in HEK-293 cells and subsequently tagged with DNA for qPCR detection. Streptavidin-coated magnetic beads were treated with biotinylated small molecule ligands for 30 minutes at room temperature to generate affinity resins for kinase assays. The liganded beads were blocked with excess biotin and washed with blocking buffer (SeaBlock (Pierce), 1% BSA, 0.05% Tween 20, 1 mM DTT) to remove unbound ligand and to reduce non-specific binding. […] Test compounds were prepared as 111× stocks in 100% DMSO. Kds were determined using an 11-point 3-fold compound dilution series with three DMSO control points. All compounds for Kd measurements are distributed by acoustic transfer (non-contact dispensing) in 100% DMSO. The compounds were then diluted directly into the assays such that the final concentration of DMSO was 0.9%. All reactions were performed in polypropylene 384-well plates. Each was a final volume of 0.02 mL. […] The kinase concentration in the eluates was measured by qPCR.
(§3) Binding constants (Kds) were calculated with a standard dose-response curve using the Hill equation. The Hill Slope was set to −1. Curves were fitted using a non-linear least square fit with the Levenberg-Marquardt algorithm.

For a further assay, the target named is T2, FLT3 R834Q (Homo sapiens, UniProt P36888, R834Q).
T2 construct: purchased DiscoverX (KINOMEscan); host or cells: E. coli BL21-derived host (T7 phage) or HEK-293
T2 sequence (P36888 27-993 R834Q): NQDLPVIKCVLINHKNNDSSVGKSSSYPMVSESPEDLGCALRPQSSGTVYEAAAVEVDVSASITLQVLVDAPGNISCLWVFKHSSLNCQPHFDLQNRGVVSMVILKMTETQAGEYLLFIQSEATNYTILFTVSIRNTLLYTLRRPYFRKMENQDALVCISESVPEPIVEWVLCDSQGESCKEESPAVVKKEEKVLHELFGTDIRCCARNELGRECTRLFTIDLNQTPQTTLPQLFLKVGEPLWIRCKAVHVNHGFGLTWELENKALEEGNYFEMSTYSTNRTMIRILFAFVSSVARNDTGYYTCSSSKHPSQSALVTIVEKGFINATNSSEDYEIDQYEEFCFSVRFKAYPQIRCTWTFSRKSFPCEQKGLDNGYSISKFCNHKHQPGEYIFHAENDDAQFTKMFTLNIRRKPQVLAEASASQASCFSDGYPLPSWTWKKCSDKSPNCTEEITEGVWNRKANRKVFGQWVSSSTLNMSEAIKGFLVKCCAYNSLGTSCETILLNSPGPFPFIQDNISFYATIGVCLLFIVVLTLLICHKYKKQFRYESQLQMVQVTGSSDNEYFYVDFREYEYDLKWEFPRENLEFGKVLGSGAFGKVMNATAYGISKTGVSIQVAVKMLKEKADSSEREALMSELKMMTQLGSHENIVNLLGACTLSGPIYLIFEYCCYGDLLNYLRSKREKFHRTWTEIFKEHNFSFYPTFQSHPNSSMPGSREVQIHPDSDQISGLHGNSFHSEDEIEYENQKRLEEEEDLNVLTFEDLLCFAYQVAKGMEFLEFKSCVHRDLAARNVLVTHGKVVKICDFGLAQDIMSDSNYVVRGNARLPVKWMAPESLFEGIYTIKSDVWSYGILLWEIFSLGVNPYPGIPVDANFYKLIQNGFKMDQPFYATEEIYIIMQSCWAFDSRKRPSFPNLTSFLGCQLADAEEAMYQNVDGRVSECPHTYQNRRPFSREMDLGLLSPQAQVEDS
Kind of assay: DiscoverX KINOMEscan competition binding assay, FLT3 R834Q. The conditions noted are these: 11-point 3-fold dilution.
Excerpt: as §1, §2, §3

Some results are limits rather than exact numbers.

Take `COc1cc2ncc(-c3nc(N[C@H]4CNCC[C@@H]4F)ncc3F)n2nc1C1CC1` [Compound 1a, 4-(6-cyclopropyl-7-methoxyimidazo[1,2-b]pyridazin-3-yl)-5-fluoro-N-((3S,4S)-4-fluoropiperidin-3-yl)pyrimidin-2-amine]: the Kd on FLT3 ITD, F691L is below 0.17 nM; on FLT3 R834Q it was below 0.17 nM.

With `FC(F)COc1cc2ncc(-c3ccnc(N[C@H]4CNCC[C@@H]4F)n3)n2nc1C1CC1` [Compound 4a, 4-(6-cyclopropyl-7-(2,2-difluoroethoxy)imidazo[1,2-b]pyridazin-3-yl)-N-((3 S,4S)-4-fluoropiperidin-3-yl)pyrimidin-2-amine], the Kd is below 0.17 nM at FLT3 ITD, F691L and 0.69 nM at FLT3 R834Q.

With `COc1cc2ncc(-c3nc(N[C@H]4CNCC[C@@H]4F)ncc3F)n2nc1C(C)(C)O` [Compound 45a, 2-(3-(5-fluoro-2-(((3S,4S)-4-fluoropiperidin-3-yl)amino)pyrimidin-4-yl)-7-methoxyimidazo[1,2-b]pyridazin-6-yl)propan-2-ol], the Kd worked out at 0.19 nM at FLT3 ITD, F691L and 5.9 nM on FLT3 R834Q.

Consider `CC(C)(O)c1ccc2ncc(-c3nc(N[C@H]4CNCC[C@@H]4F)ncc3F)n2c1` [Compound 46a, 2-(3-(5-fluoro-2-(((3S,4S)-4-fluoropiperidin-3-yl)amino)pyrimidin-4-yl)imidazo[1,2-a]pyridin-6-yl)propan-2-ol], for which the equilibrium dissociation constant (Kd) is 0.22 nM at FLT3 ITD, F691L and 4.4 nM at FLT3 R834Q.

As to `COc1cc2ncc(-c3nc(N[C@H]4CNCC[C@@H]4F)ncc3F)n2nc1C1COC1` [Compound 92a, 5-fluoro-N-((3S,4S)-4-fluoropiperidin-3-yl)-4-(7-methoxy-6-(oxetan-3-yl)imidazo[1,2-b]pyridazin-3-yl)pyrimidin-2-amine], the Kd on FLT3 ITD, F691L is below 0.17 nM; at FLT3 R834Q, 0.77 nM.

For the compound `CC(C)(O)c1cn2c(-c3nc(N[C@H]4CNCC[C@@H]4F)ncc3F)cnc2cn1` [Compound 100a, 2-(3-(5-fluoro-2-(((3S,4S)-4-fluoropiperidin-3-yl)amino)pyrimidin-4-yl)imidazo[1,2-a]pyrazin-6-yl)propan-2-ol], the Kd at FLT3 ITD, F691L is 3.4 nM; at FLT3 R834Q, 40 nM.

`COc1cc2ncc(-c3nc(N[C@H]4CNCC[C@@H]4F)ncc3F)n2nc1N1CCCS1(=O)=O` [Compound 112a, 2-(3-(5-fluoro-2-(((3S,4S)-4-fluoropiperidin-3-yl)amino)pyrimidin-4-yl)-7-methoxyimidazo[1,2-b]pyridazin-6-yl)isothiazolidine 1,1-dioxide]: the Kd was below 0.17 nM at FLT3 ITD, F691L and 0.28 nM on FLT3 R834Q.
